Experimental data as given in patent US20240140966A1, “AMORPHOUS AND CRYSTALLINE FORMS OF MCL-1 ANTAGONISTS” (AMGEN INC., priority 2022, published 2024).
Entries after “also recorded” stand apart in the source; their conditions may differ.

What was measured:
[1] = Moisture sorption (DVS); format: physicochemical; settings: for hygroscopicity (in words): DVS up to 95% RH; for XRPD of the post-DVS material: after DVS cycle
Description: Moisture Sorption: Moisture sorption data was collected at 25° C. using a VTI vapor sorption analyzer. A sample size of approximately 4-10 mg was used in a standard platinum pan. Hygroscopicity was evaluated from 5 to 95% RH in increments of 5% RH. Data for adsorption and desorption cycles were collected. Equilibrium criteria were set at 0.001% weight change in 10 minute with a maximum equilibration time of 180 minutes.

[2] = Solid state stability assessment under accelerated conditions; format: physicochemical; settings: for XRPD after solid state physical stability assessment: 8 weeks under stress conditions; for chemical and physical stability after 8 weeks: 25° C./60% RH (open), 40° C. (closed), 60° C. (closed), 40° C./75% RH (open)
Description: Solid state stability assessment of AMG 176 Form 1 was conducted at 25° C./60% RH (open), 40° C. (closed), 60° C. (closed), and 40° C./75% RH (open) accelerated conditions to determine the chemical and physical stability of AMG 176.
Solid state stability assessment of AMG 176 amorphous material and Form 1 was conducted at 25° C./60% RH (open), 40° C. (closed), 60° C. (closed), and 40° C./75% RH (open) accelerated conditions to determine the chemical and physical stability of AMG 176.

[3] = Dog PK studies, amorphous versus crystalline suspension; format: in vivo; settings: AMG 176 dosed as an amorphous suspension as compared to the crystalline suspension
Excerpt: AMG 176 Form 1 has acceptable pharmaceutical and physical properties, can be scaled to kilogram quantities, and can be compounded during drug product formulating as an in situ sodium salt to achieve desired drug concentrations to enable IV delivery. AMG 176 can also be converted to amorphous material to support oral dosing, if desired, depending on the dosing range. […] While improved exposures were observed by dosing the amorphous material, the exposures would likely plateau if gram level doses are need for oral delivery.

[4] = DVS, 25° C., adsorption 5% to 95% RH

Row | SMILES | hygroscopicity (in words) [1] | water vapor uptake between 5% and 95% RH [1, 4] | XRPD of the post-DVS material [1] | XRPD after solid state physical stability assessment ([2]; listed as crystalline Form 1 of AMG 176) | chemical and physical stability after 8 weeks [2] | improvement of absorption [3] | water vapor uptake (weight gain) between 5% and 95% RH [1, 4] | water vapor uptake (weight gain) between 5% and 95% RH ([1]; DVS, 25° C., adsorption 5% to 95% RH, listed as amorphous form of AMG 176) | weight gain at 95% RH ([1]; DVS, 95% relative humidity) | weight lost upon desorption ([1]; DVS, desorption cycle, likely loss of residual DCM and/or water) | XRPD of the post-DVS material ([1]; listed as amorphous form of AMG 176) | XRPD after solid state physical stability assessment [2]
1 | CO[C@H]1/C=C/C[C@H](C)[C@@H](C)S(=O)(=O)NC(=O)c2ccc3c(c2)N(C[C@@H]2CC[C@H]21)C[C@@]1(CCCc2cc(Cl)ccc21)CO3 [AMG 176 Form 1] | low hygroscopicity; also recorded: non-hygroscopic | 0.3% | no form change | Form conversion was not observed | physically and chemically stable | – | – | – | – | – | – | –
2 | CO[C@H]1/C=C/C[C@H](C)[C@@H](C)S(=O)(=O)NC(=O)c2ccc3c(c2)N(C[C@@H]2CC[C@H]21)C[C@@]1(CCCc2cc(Cl)ccc21)CO3 [AMG 176, (1S,3′R,6′R,7′S,8′E,11′S,12′R)-6-chloro-7′-methoxy-11′,12′-dimethyl-3,4-dihydro-2H,15′H-spiro[naphthalene-1,22′-[20]oxa[13]thia[1,14]diazatetracyclo[14.7.2.0^3,6.O^19,24]pentacosa[8,16,18,24]tetraen]-15′-one 13′,13′-dioxide] | – | – | – | – | – | 10 × | – | – | – | – | – | –
3 | CO[C@H]1/C=C/C[C@H](C)[C@@H](C)S(=O)(=O)NC(=O)c2ccc3c(c2)N(C[C@@H]2CC[C@H]21)C[C@@]1(CCCc2cc(Cl)ccc21)CO3 [Amorphous AMG 176] | limited hygroscopicity | – | consistent with amorphous material | – | physically and chemically stable | – | 0.95 wt % | about 0.95 wt % | 0.95% | 1.59% | consistent with amorphous material | Crystallization not observed
